Legend:
[1] = system: t-PA site occupancy at Asn-184; test: Type I/Type II t-PA assay (RP-HPLC) of supernatant from rht-PA-producing CHO cell cultures; assay type: cell-based, Chinese Hamster; settings: for t-PA site occupancy compared to control with no cell-cycle inhibitor: 3-4 days, quinidine 90 μM, thymidine 250 μg/mL at inoculation (FIG. 9); for t-PA site-occupancy, effect of nucleotide sugar precursors: increased availability; for t-PA site-occupancy, effect of nucleotide sugar precursors / Decrease of t-PA site occupancy at 500 µM: days 4-6 (FIG. 12); for Decrease of t-PA site occupancy at 500 µM: Cricetulus griseus, CHO, 0.5 mM each; for t-PA site-occupancy, effect of further butyrate increase: 1.5 mM butyrate; for Increase of t-PA site-occupancy: 1, 10 or 100 nM hormone, day 7 (FIG. 13)
Protocol: Type I/Type II t-PA assay:
1. Thaw cell culture supernatant sample (If whole broth, spin out cells in centrifuge.)
2. Add 2 μl freshly thawed plasminogen to 400 μl of sample.
3. Incubate at 37° C. for 60 minutes.
4. Add 20 μl freshly-thawed 1 M DTT and 400 μl 8 M guanidine-HCl/50 mM TRIS/3.2 mM EDTA solution.
5. Incubate at 37° C. for 15 minutes.
6. Transfer to vial and load 250 μl for assay on HP 1090™ HPLC using the following conditions:
ZORBAX™ C8 column at 40° C.;
Monitoring of eluents by fluorescence (excitation at 275 nm, emission at 340 nm);
Running each sample with the following 70-minute method where eluent A is 0.1% trifluoroacetic acid (TFA) in water and eluent B is 0.1% TFA in acetonitrile:
5 to 35 min.—a linear gradient from 75% A to 60% A
45 min. to 70 min.—75% A to re-equilibrate the column
Type I/Type II fragments elute after approximately 25 minutes, and peak areas are integrated to determine relative quantities.
Recombinant ht-PA-producing CHO cells were carried in spinner flasks passaged every 3 or 4 days (at a density of 0.1% packed cell volume (PCV)) in selective medium (PS-20 basal medium supplemented with […] methotrexate, 10 mg/L recombinant human insulin (rh-insulin), 0.1 ml/L trace elements, and 0.05 ml/L lipid-ethanol). Sufficient culture was removed to seed 15 ml of medium at 0.2% PCV, and placed in a 50 ml sterile Falcon tube. The culture was centrifuged for 10 minutes at 700-1000 rpm and the supernatant was poured off. Upon addition of 15 ml of fresh selective medium, the culture was agitated gently to resuspend cells. Five ml of culture was placed in three T-25 flasks (25 cm^2 T-flasks). The caps were left loosened to allow equilibration with incubator atmosphere and the flasks were placed in a 33° C. or 31° C. incubator with 5% carbon dioxide. After 5 to 8 days of incubation, the cells were counted using a hemacytometer and/or by checking packed cell volume, and viability was checked using trypan blue. The culture was removed from the flasks, centrifuged for 10 minutes at 2000-2200 rpm, and the supernatant was assayed for rht-PA glycosylation. Alternatively to the T-25 flasks, the cells were cultured using 60-mm cell culture plates in triplicates.
The mini-fermentor experiments were performed under standard t-PA production conditions in fed-batch mode as noted herein in 5-liter stirred tank bioreactors (Applikon, Foster City, Calif.). The temperature was shifted to 33° C. or 31° C. on day 2 of the production phase.
(§1) The quantity of cells needed for a 0.2% packed cell volume seed density was centrifuged at approximately 700×g for 10 minutes, and resuspended in 25 cm^2 T-flasks in the appropriate fresh medium for each test case. The T-flasks were set up in triplicate with 5 mL in each flask and incubated for 3 to 4 days at 37° C. and 95% air 5% CO2. Sodium butyrate was added to a concentration of 0.375 mM, 0.75 mM, or 1.5 mM at the time of inoculation for the 25 cm^2 T-flasks. Cells were also cultured in spinner flasks at volumes of 100 ml with similar butyrate concentrations to the T-flask cases. For fermentor experiments, butyrate was added on the second day of the experiments. T-flask cultures were also carried out at 33° C. and 37° C. with no butyrate additions. […] T-PA site-occupancy was analyzed using the method of Example 1.
(§2) Cells were cultured as for the sodium butyrate experiment described in Example 2. Thymidine was dissolved in water and sterile filtered for a 33-36× stock solution. […] T-PA site-occupancy was analyzed using the method of Example 1.
All experiments were done in 60-mm culture dishes using the procedure described in Example 1 except that a Mn salt, Fe salt, nucleotide sugar precursor, or hormone was added to the growth medium during the growth phase, with Mn or Fe salt or nucleotide sugar precursor added on day 1.

CHO cells = test: Cell-cycle analysis (propidium iodide flow cytometry) of rht-PA-producing CHO cell cultures; assay type: cell-based, Chinese Hamster; settings: T-flasks, 37° C., thymidine 250 μg/mL; for Cells in G0/G1 phase: 3-4 days, added at inoculation: quinidine 90 μM, control 53.91%; for Cells in S phase: control 34.37%
Source text: As used herein, a “cell-cycle inhibitor that blocks cells in the G0/G1 phase of growth” is a molecule that causes cells to accumulate in the G0/G1 phase of growth. This can be determined by cell cycle analysis, i.e., uniform suspensions of nuclei are stained with propidium iodide (PI) using the detergent-trypsin method of Vindelov et al., Cytometry, 3: 323-327 (1983) to determine relative cellular DNA content by flow cytometric analysis. Events are gated using doublet discrimination to exclude doublets, and the data are modeled using ModFit LT Cell Cycle Analysis™ software (Verity Software House).
as §1, §2

fibrin = settings: in vitro; cited from earlier work

Molecule: C=C[C@H]1C[N@@]2CC[C@H]1C[C@@H]2[C@@H](O)c1ccnc2ccc(OC)cc12 [Quinidine, quinidine]
- t-PA site occupancy compared to control with no cell-cycle inhibitor ([1]; T-flasks, 37° C.): increased site occupancy
- Cells in G0/G1 phase (CHO cells): 67.34% at 84.65
- Cells in G0/G1 phase (CHO cells; listed as quinidine): 67%
- Cells in S phase (CHO cells; quinidine 90 μM): 24.11%

Molecule: Cc1cn([C@H]2C[C@H](O)[C@@H](CO)O2)c(=O)[nH]c1=O [Thymidine, thymidine]
- t-PA site occupancy compared to control with no cell-cycle inhibitor ([1]; T-flasks, 37° C.): decreased site occupancy
- t-PA site-occupancy, effect of nucleotide sugar precursors ([1]; 60-mm dishes, 37° C.): did not improve site-occupancy
- Cells in G0/G1 phase (CHO cells): 32.58% at 84.60
- Cells in G0/G1 phase (CHO cells; listed as thymidine): 33%
- Cells in G2-M phase (CHO cells; quinidine 90 μM, control 11.72%): 10.09% at 165.36
- Cells in S phase (CHO cells; quinidine 90 μM): 57.33%

Molecule: NCC(=O)O [glycine]
- t-PA site-occupancy, effect of nucleotide sugar precursors ([1]; 60-mm dishes, 37° C.): did not improve site-occupancy

Molecule: Nc1nc2c(ncn2[C@@H]2O[C@H](CO)[C@@H](O)[C@H]2O)c(=O)[nH]1 [guanosine]
- Decrease of t-PA site occupancy at 500 µM ([1]; 60-mm dishes, 37° C.): ~2%

Molecule: O=c1[nH]cnc2nc[nH]c12 [hypoxanthine]
- t-PA site-occupancy, effect of nucleotide sugar precursors ([1]; 60-mm dishes, 37° C.): did not improve site-occupancy

Molecule: [Cl][Mn][Cl] [manganese, MnCl2]
- Increase of t-PA Type I content (site-occupancy) over 3 nM control ([1]; MnCl2 10 nM-100 μM, 60-mm dishes, 37° C., days 4-6 (FIG. 10)): about 2.5%

Molecule: CCCC(=O)[O-].[Na+] [sodium butyrate]
- Increase of Type I content compared to no butyrate ([1]; 0.75 mM butyrate, 60-mm culture plates (FIG. 6)): about 1%
- t-PA site-occupancy, effect of further butyrate increase ([1]; 31° C., 60-mm culture plates (FIG. 6)): increased it
- t-PA site-occupancy, effect of further butyrate increase ([1]; 37° C. and 33° C., 60-mm culture plates (FIG. 6)): lowered site-occupancy
- t-PA site-occupancy, effect of butyrate ([1]; 0.375 to 1.5 mM at inoculation, T-flasks, 37° C. (FIG. 5)): increased t-PA site-occupancy
- Type I content, effect of increasing butyrate from 0.75 to 1.5 mM ([1]; 5-liter bioreactors, days 5-7, 37° C. and 33° C. (FIG. 7)): decreased the Type I content

Molecule: N[C@@H](Cc1cc(I)c(Oc2cc(I)c(O)c(I)c2)c(I)c1)C(=O)O [thyroxine]
- Increase of t-PA site-occupancy ([1]; 60-mm dishes, 37° C.): about 2%

Molecule: N[C@@H](Cc1cc(I)c(Oc2ccc(O)c(I)c2)c(I)c1)C(=O)O [tri-iodothyronine]
- Increase of t-PA site-occupancy ([1]; 60-mm dishes, 37° C.): about 2%

Molecule: O=c1ccn([C@@H]2O[C@H](CO)[C@@H](O)[C@H]2O)c(=O)[nH]1 [uridine]
- Decrease of t-PA site occupancy at 500 µM ([1]; 60-mm dishes, 37° C.): ~2%

Molecule: ferric citrate
- Increase of t-PA site occupancy ([1]; 10-100 μM ferric citrate, 60-mm dishes, 37° C., days 4-6 (FIG. 11)): up to 4%

Molecule: t-PA: human tissue-type plasminogen activator, recombinant, produced in CHO cells; mixture of Type I and Type II glycoforms
- Kd of binding to fibrin (fibrin): in the μM range
